{"source": "patent US6514967B1", "about": "(priority 1997, dated 2003)", "key": {"[1]": {"assay": "Chemical test of capture of OH• radicals (deoxyribose competition)", "assay_type": "biochemical", "settings": "rate constant of reaction of the competitor with OH•; competition with 2-deoxyribose, UV at 532 nm", "protocol": "A) Chemical test of capture of OH^• radicals:\n(Free Rad. Res. Comms., Vol. 14, Nos. 5-6, pp. 363-372)\n[…] of buffer (30 mM Na2HPO4.7H2O, 40 mM NaCl, 0.1 mM EDTA), 125 ml of deoxyribose at 2.10^−3 mM and 125 ml of 4-times concentrated solution of radical inhibitor (final concentration from 0 to 0.5 mM) were placed in glass haemolysis tubes cooled on an ice bath. […] of FeSO4 at 10^−3 mM (in water) is added at time 0. After 15 min of incubation the reaction is stopped with 250 ml of trichloroacetic acid at 3%, to which is added 250 ml of solution of thiobarbituric acid at 1.5% (in water). The tubes are kept at 100° C. for 10 min then cooled for detection with UV at 532 nm. The linear relation A0/A=1+ks/dkr [(competitor)/(2-deoxyribose)] was used, where A0 and A denote the absorbances in the absence and in the presence of competitor, ks is the rate constant of reaction of the competitor with OH• and kdr=1.9*10^9 M^−1 sec^−1 is the rate constant of reaction of 2-deoxyribose with OH•. Thus ks is equal to the gradient of the straight line A0/A f((competitor)/(2-deoxyribose)) multiplied by kdr."}, "xanthine oxidase": {"target": "xanthine oxidase (Homo sapiens, UniProt P47989)", "sequence (P47989 whole entry, species assumed)": "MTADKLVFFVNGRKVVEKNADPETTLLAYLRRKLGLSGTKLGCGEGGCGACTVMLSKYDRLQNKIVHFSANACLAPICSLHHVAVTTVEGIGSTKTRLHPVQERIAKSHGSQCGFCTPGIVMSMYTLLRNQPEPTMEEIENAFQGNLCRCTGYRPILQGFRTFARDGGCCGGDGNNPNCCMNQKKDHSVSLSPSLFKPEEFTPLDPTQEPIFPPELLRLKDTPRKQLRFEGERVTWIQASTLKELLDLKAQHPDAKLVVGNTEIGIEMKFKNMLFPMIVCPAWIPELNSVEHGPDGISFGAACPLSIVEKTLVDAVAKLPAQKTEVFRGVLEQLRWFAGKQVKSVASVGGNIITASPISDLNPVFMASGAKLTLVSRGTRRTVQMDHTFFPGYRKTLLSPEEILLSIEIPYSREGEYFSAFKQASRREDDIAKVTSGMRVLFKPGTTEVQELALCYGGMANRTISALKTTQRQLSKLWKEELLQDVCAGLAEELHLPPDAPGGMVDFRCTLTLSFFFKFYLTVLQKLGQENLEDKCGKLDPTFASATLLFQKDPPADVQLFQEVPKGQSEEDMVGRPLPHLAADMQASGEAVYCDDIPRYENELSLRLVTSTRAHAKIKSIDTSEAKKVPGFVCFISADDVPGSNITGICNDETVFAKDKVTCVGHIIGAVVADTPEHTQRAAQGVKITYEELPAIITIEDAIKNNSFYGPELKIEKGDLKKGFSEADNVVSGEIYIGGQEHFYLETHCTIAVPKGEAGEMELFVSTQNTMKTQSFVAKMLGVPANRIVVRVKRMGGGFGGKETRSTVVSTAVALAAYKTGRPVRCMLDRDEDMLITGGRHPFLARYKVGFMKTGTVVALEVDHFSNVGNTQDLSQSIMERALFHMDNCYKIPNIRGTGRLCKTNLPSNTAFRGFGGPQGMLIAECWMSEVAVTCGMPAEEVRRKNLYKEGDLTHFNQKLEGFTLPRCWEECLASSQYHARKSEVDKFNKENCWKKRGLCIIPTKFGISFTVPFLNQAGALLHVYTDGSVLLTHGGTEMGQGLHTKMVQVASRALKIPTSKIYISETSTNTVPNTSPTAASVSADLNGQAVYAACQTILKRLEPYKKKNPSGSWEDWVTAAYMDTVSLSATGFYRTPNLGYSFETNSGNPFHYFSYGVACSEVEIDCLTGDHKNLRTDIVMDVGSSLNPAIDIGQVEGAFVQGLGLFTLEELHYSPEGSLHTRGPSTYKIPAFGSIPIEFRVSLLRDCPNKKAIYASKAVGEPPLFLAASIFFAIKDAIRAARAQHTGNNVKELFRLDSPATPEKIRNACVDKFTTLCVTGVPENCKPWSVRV", "assay": "Action of the derivatives on xanthine oxidase", "assay_type": "biochemical", "protocol": "Action of the derivatives on xanthine oxidase:\n(Free Radical Biology & Medicine, Vol 20, No 1, pp.35-43, 1996)\n[…] of xanthine 20 mM in soda 0.1N and […] of the test product in phosphate buffer at pH 7.4 were placed in a final volume of 2 ml. Reaction is started by adding […] of solution of xanthine oxidase at 0.56 U/ml. Formation of […] is monitored by UV spectroscopy at 290 nm. Allopurinol is a reference inhibitor."}, "[2]": {"assay": "Concentration in brain and plasma after systemic injection", "assay_type": "in vivo, rats of the Wistar strain", "protocol": "Experimental preparation: [Amer. J. Physiol., 267 (1994) R164-R170]\nUnder general anaesthesia, catheters made from tubes of flexible and inert polyethylene PE50 (Clay Adams) are placed in the right carotid artery of male rats of the Wistar strain weighing 250 g, and are slid under the skin to emerge at the nape at a site that is inaccessible to the animal. The injections are carried out 5 days later, to allow the animals optimum post-operative recovery. This arrangement permits easy and very quick systemic injections on the animal while it is conscious.\nAt the specified time after injection, the animals are killed by decapitation. The brains are removed in less than a minute without further fractionation. The meninges are quickly separated and the brains are rinsed in a large volume of physiological serum before being frozen at −30° C. The blood is collected on EDTA in tubes maintained at 0° C. After centrifugation, the plasma is separated and aliquots are preserved at −30° C.\nAfter thawing, the brains are weighed and homogenized in the cold in 3 volumes of NaOH (0.1N), using an Ultra-Turrax pulverizer. An internal standard, at a suitable concentration, is added to each sample to allow for individual variations in extraction. The pulverizates are directly extracted three times with a total of 6 volumes of ethyl acetate, followed each time by centrifugation at high speed.\nApart from the stage of pulverizing, the plasmas are treated similarly.\nThe extracts are filtered through a 0.22 μm Millipore membrane and, after evaporation of the solvent under a nitrogen stream, the dry extracts are stored at −30° C.\nOne of the compounds of the invention (IC 180), diluted in physiological serum, is injected at a concentration equal to 20 mg.kg^−1. […] Its concentration decreases by about 50% in the brain, 1 hour after injection. […] The ratio of the concentrations between the brain and the plasma therefore increases between 30 and 60 minutes after injection."}, "[3]": {"settings": "30 min after injection of 20 mg.kg^−1"}, "[4]": {"settings": "1 hour after injection of 20 mg.kg^−1"}}, "data": [{"smiles": "c1cc2c(s1)CCCC2N1CCOCC1", "note": "(centres unmarked) [IC180, morpholine-4-tetrahydro-4,5,6,7-benzothiophene]", "values": [{"measurement": "ks (10^−9M^−1 sec^−1) (±SEM)", "setting": "[1]", "result": "3.75 ± 0.33 10^−9M^−1 sec^−1"}, {"measurement": "inhibition at 100 µM", "setting": "xanthine oxidase; read-out: % inhibition 100 μM", "result": 0, "unit": "%"}, {"measurement": "inhibition at 500 µM", "setting": "xanthine oxidase; read-out: % inhibition 500 μM", "result": 2, "unit": "%"}, {"measurement": "detection in the brain", "setting": "[2]; [3]", "result": "detected preferentially in the brain"}, {"measurement": "detection in the plasma", "setting": "[2]; [3]", "result": "clearly identifiable in the plasma"}, {"measurement": "decrease of concentration in the brain", "setting": "[2]; [4]", "result": "about 50%"}, {"measurement": "detection in the plasma", "setting": "[2]; [4]", "result": "can only be detected very slightly"}, {"measurement": "ratio of the concentrations between the brain and the plasma", "setting": "[2]; between 30 and 60 minutes after injection, FIG. 10", "result": "increases"}]}]}
